Our source for the IC50 values is patent US20130303509A1, “NAMPT INHIBITORS” (AbbVie Inc., priority 2012, published 2013).

This assay deals with PC3 cells. Nature of the assay: NAMPT Cell Proliferation Assay. It counts as cell-based. The conditions noted are these: Homo sapiens, PC-3, 120 h, 5 days incubation, cell viability by Cell Titer Glo. In a few lines:
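Five-day CellTiter-Glo viability readout in PC3 cells grown in RPMI/10% heat-inactivated FBS. Compounds added after overnight attachment as a 10-fold dilution series, […]. Percent inhibition fitted to sigmoidal dose-response to derive IC50.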
(Cellular ATP, detected with luciferase, serves as a proxy for viable cell number.)
Broadly, the IC50 is the concentration that inhibits the measured activity by half. Read a high IC50 as weaker potency. Regarding `O=C(Nc1ccc(C2CCN(C(=O)CCC(F)(F)F)CC2)cc1)[C@H]1CCN(c2cccnn2)C1` [Example 653, (3S)-1-(pyridazin-3-yl)-N-{4-[1-(4,4,4-trifluorobutanoyl)piperidin-4-yl]phenyl}pyrrolidine-3-carboxamide], half-maximal inhibition (IC50) required 9.72 nM.

`CC(C)C(=O)N1CCC(Oc2ccc(NC(=O)C3CN(c4cccnc4)C3)cc2)CC1` [Example 46, N-(4-{[1-(2-methylpropanoyl)piperidin-4-yl]oxy}phenyl)-1-(pyridin-3-yl)azetidine-3-carboxamide] yielded an IC50 of 3.01 nM. This IC50 is about 3.2-fold lower than that of the molecule before.

`Cc1ccc(C)c(C(=O)N2CCC(c3ccc(NC(=O)[C@H]4CCN(c5cccnn5)C4)cc3)CC2)c1` [Example 696, (3S)-N-{4-[1-(2,5-dimethylbenzoyl)piperidin-4-yl]phenyl}-1-(pyridazin-3-yl)pyrrolidine-3-carboxamide] registered an IC50 of 4.67 nM. Compared with the last molecule, the IC50 is about 1.6-fold higher.

In turn, `CC(C)Cn1cc(-c2cc(C(=O)N[C@@H]3CCN(c4cccnn4)C3)cs2)cn1` [Example 623, 5-[1-(2-methylpropyl)-1H-pyrazol-4-yl]-N-[(3R)-1-(pyridazin-3-yl)pyrrolidin-3-yl]thiophene-3-carboxamide] came in with a half-inhibitory concentration (IC50) of 6170 nM.

`O=C(Nc1ccc(C2CCN(C(=O)c3cc(Cl)cc(Cl)c3)CC2)cc1)[C@H]1CCN(c2cccnn2)C1` [Example 684, (3S)-N-{4-[1-(3,5-dichlorobenzoyl)piperidin-4-yl]phenyl}-1-(pyridazin-3-yl)pyrrolidine-3-carboxamide]: inhibition was half-maximal at 76.6 nM (IC50).

`O=C(Nc1ccc(O[C@@H]2CCN(C(=O)CC3CC3)C2)cc1)C1CN(c2ccnnc2)C1` [Example 444, N-(4-{[(3R)-1-(cyclopropylacetyl)pyrrolidin-3-yl]oxy}phenyl)-1-(pyridazin-4-yl)azetidine-3-carboxamide] came in with an IC50 of 78 nM.

For the molecule `CC[C@H](C(=O)N1CCC(S(=O)(=O)c2ccc(NC(=O)C3CN(c4cccnn4)C3)cc2)CC1)c1ccccc1` [Example 571, N-[4-({1-[(2S)-2-phenylbutanoyl]piperidin-4-yl}sulfonyl)phenyl]-1-(pyridazin-3-yl)azetidine-3-carboxamide], half-maximal inhibition (IC50) was put at 118 nM.

Turning to `CC(C)C(=O)N1CCC(c2ccc(NC(=O)C3CN(c4ccnnc4)C3)cc2)CC1` [Example 528, N-{4-[1-(2-methylpropanoyl)piperidin-4-yl]phenyl}-1-(pyridazin-4-yl)azetidine-3-carboxamide], it took 19.2 nM to reach half-maximal inhibition (IC50).

The molecule `O=C(Nc1ccc(C2CCN(C(=O)c3cccc(Cl)c3)CC2)cc1)[C@H]1CCN(c2cccnn2)C1` [Example 709, (3S)-N-{4-[1-(3-chlorobenzoyl)piperidin-4-yl]phenyl}-1-(pyridazin-3-yl)pyrrolidine-3-carboxamide] displayed an IC50 of 14.5 nM.

As to `Cc1cccc(C(=O)N2CCC(c3ccc(NC(=O)[C@H]4CCN(c5cccnn5)C4)cc3)CC2)c1` [Example 677, (3S)-N-{4-[1-(3-methylbenzoyl)piperidin-4-yl]phenyl}-1-(pyridazin-3-yl)pyrrolidine-3-carboxamide], the IC50 worked out at 9.3 nM.

For `CC(=O)N1CCC(C(=O)N2CCC(c3ccc(NC(=O)[C@H]4CCN(c5cccnn5)C4)cc3)CC2)CC1` [Example 716, (3S)-N-(4-{1-[(1-acetylpiperidin-4-yl)carbonyl]piperidin-4-yl}phenyl)-1-(pyridazin-3-yl)pyrrolidine-3-carboxamide], the IC50 worked out at 69.2 nM.

As for `CC(C)(C)c1ccc(C(=O)N2CCC(S(=O)(=O)c3ccc(NC(=O)C4CN(c5cccnn5)C4)cc3)CC2)cc1` [Example 565, N-(4-{[1-(4-tert-butylbenzoyl)piperidin-4-yl]sulfonyl}phenyl)-1-(pyridazin-3-yl)azetidine-3-carboxamide], the concentration for half-maximal inhibition (IC50) turned out to be 74.1 nM.

As to `Cc1ncccc1N1CC(C(=O)Nc2ccc(C3CCN(C(=O)c4cccn4C)CC3)cc2)C1` [Example 188, 1-(2-methylpyridin-3-yl)-N-(4-{1-[(1-methyl-1H-pyrrol-2-yl)carbonyl]piperidin-4-yl}phenyl)azetidine-3-carboxamide], inhibition was half-maximal at 22.4 nM (IC50).

For `CC(C)C(C)C(=O)N1CCC(c2ccc(NC(=O)C3CN(c4cccnc4)C3)cc2)CC1` (stereo not drawn) [Example 139, N-{4-[1-(2,3-dimethylbutanoyl)piperidin-4-yl]phenyl}-1-(pyridin-3-yl)azetidine-3-carboxamide], the IC50 was found to be 0.18 nM.

`O=C(Nc1ccc(S(=O)(=O)C2CCN(C(=O)Cc3ccc(F)cc3)CC2)cc1)C1CN(c2cccnn2)C1` [Example 579, N-[4-({1-[(4-fluorophenyl)acetyl]piperidin-4-yl}sulfonyl)phenyl]-1-(pyridazin-3-yl)azetidine-3-carboxamide] had a half-maximal inhibitory concentration (IC50) of 267 nM.

In the case of `N#Cc1ccncc1N1CC(C(=O)Nc2ccc(C3CCN(C(=O)c4ccccc4)CC3)cc2)C1` [Example 738, N-[4-(1-benzoylpiperidin-4-yl)phenyl]-1-(4-cyanopyridin-3-yl)azetidine-3-carboxamide], inhibition was half-maximal at 854 nM (IC50).

`CC(C)(C(=O)N1CCC(Oc2ccc(NC(=O)C3CN(c4cccnn4)C3)cc2)CC1)c1ccccc1` [Example 217, N-(4-{[1-(2-methyl-2-phenylpropanoyl)piperidin-4-yl]oxy}phenyl)-1-(pyridazin-3-yl)azetidine-3-carboxamide] yielded a 50% inhibitory concentration (IC50) of 2.55 nM.

`CC(=O)N1CCC(Oc2ccc(NC(=O)C3CN(c4cccnn4)C3)cc2)CC1` [Example 244, -{4-[(1-acetylpiperidin-4-yl)oxy]phenyl}-1-(pyridazin-3-yl)azetidine-3-carboxamide] had a concentration for half-maximal inhibition (IC50) of 10.4 nM.

Regarding `O=C(Nc1ccc(OC2CCN(C(=O)CC3CCOCC3)CC2)cc1)C1CN(c2cnccc2C(F)(F)F)C1` [Example 7, N-(4-{[1-(tetrahydro-2H-pyran-4-ylacetyl)piperidin-4-yl]oxy}phenyl)-1-[4-(trifluoromethyl)pyridin-3-yl]azetidine-3-carboxamide], the IC50 is 876 nM.

The molecule `COc1ncccc1N1CC(C(=O)Nc2ccc(C3CCN(C(=O)C(C)(C)O)CC3)cc2)C1` [Example 73, N-{4-[1-(2-hydroxy-2-methylpropanoyl)piperidin-4-yl]phenyl}-1-(2-methoxypyridin-3-yl)azetidine-3-carboxamide] displayed an IC50 of 1980 nM.

Turning to `O=C(Nc1ccc(C2CCN(C(=O)Cc3cccc(Cl)c3)CC2)cc1)[C@H]1CCN(c2cccnn2)C1` [Example 657, (3S)-N-(4-{1-[(3-chlorophenyl)acetyl]piperidin-4-yl}phenyl)-1-(pyridazin-3-yl)pyrrolidine-3-carboxamide], the concentration for half-maximal inhibition (IC50) was 8.44 nM.

Consider `O=C(Nc1ccc(O[C@@H]2CCN(C(=O)Cc3ccc(C(F)(F)F)cc3)C2)cc1)C1CN(c2cccnn2)C1` [Example 497, 1-(pyridazin-3-yl)-N-(4-{[(3R)-1-{[4-(trifluoromethyl)phenyl]acetyl}pyrrolidin-3-yl]oxy}phenyl)azetidine-3-carboxamide], for which half-maximal inhibition (IC50) required 23.4 nM.

Turning to `O=C(Nc1ccc(O[C@@H]2CCN(C(=O)CC(F)(F)F)C2)cc1)C1CN(c2cccnn2)C1` [Example 521, 1-(pyridazin-3-yl)-N-(4-{[(3R)-1-(3,3,3-trifluoropropanoyl)pyrrolidin-3-yl]oxy}phenyl)azetidine-3-carboxamide], the IC50 was determined as 4.72 nM.

`CC(C)(C)OC(=O)N1CCC(c2ccc(C(=O)NC3CN(c4cccnn4)C3)s2)CC1` [Example 808, tert-butyl 4-(5-{[1-(pyridazin-3-yl)azetidin-3-yl]carbamoyl}thiophen-2-yl)piperidine-1-carboxylate] gave an IC50 of 41.1 nM.

As to `O=C(Nc1ccc(OC2CCN(C(=O)c3ccc(F)cc3F)CC2)cc1)C1CN(c2ccnnc2)C1` [Example 284, N-(4-{[1-(2,4-difluorobenzoyl)piperidin-4-yl]oxy}phenyl)-1-(pyridazin-4-yl)azetidine-3-carboxamide], the IC50 amounted to 66.6 nM. This IC50 is about 1.6-fold higher than that of the molecule before.

Molecule `O=C(Nc1ccc(O[C@@H]2CCN(C(=O)c3cccc(Cl)c3)C2)cc1)C1CN(c2ccnnc2)C1` [Example 464, N-(4-{[(3R)-1-(3-chlorobenzoyl)pyrrolidin-3-yl]oxy}phenyl)-1-(pyridazin-4-yl)azetidine-3-carboxamide] had a half-maximal inhibitory concentration (IC50) of 65.9 nM. The IC50 values of the last two molecules are within 1.5-fold of each other.

In the case of `O=C(Nc1ccc(O[C@@H]2CCN(C(=O)c3ccc(F)c(F)c3)C2)cc1)C1CN(c2ccnnc2)C1` [Example 451, N-(4-{[(3R)-1-(3,4-difluorobenzoyl)pyrrolidin-3-yl]oxy}phenyl)-1-(pyridazin-4-yl)azetidine-3-carboxamide], the concentration for half-maximal inhibition (IC50) is 86.8 nM.

In turn, `O=C(Nc1ccc(C2CN(C(=O)c3ccccc3F)C2)cc1)[C@H]1CCN(c2cccnn2)C1` [Example 785, (3S)—N-{4-[1-(2-fluorobenzoyl)azetidin-3-yl]phenyl}-1-(pyridazin-3-yl)pyrrolidine-3-carboxamide] returned a half-inhibitory concentration (IC50) of 1.17 nM.

The molecule `COCC(=O)N1CCC(c2ccc(NC(=O)C3CN(c4ccnnc4)C3)cc2)CC1` [Example 548, N-{4-[1-(methoxyacetyl)piperidin-4-yl]phenyl}-1-(pyridazin-4-yl)azetidine-3-carboxamide] registered an IC50 of 64.9 nM. Against the preceding molecule, the IC50 is about 55-fold higher.

Consider `CC[C@H](C)C(=O)N1CCC(Oc2ccc(NC(=O)[C@H]3CCN(c4cccnc4)C3)cc2)CC1` [Example 19, (3S)-N-[4-({1-[(2S)-2-methylbutanoyl]piperidin-4-yl}oxy)phenyl]-1-(pyridin-3-yl)pyrrolidine-3-carboxamide], for which the IC50 is 56.4 nM.

In turn, `O=C(Nc1ccc(C2CCN(CC3CCCC3)CC2)cc1)C1CN(c2cccnc2)C1` [Example 88, N-{4-[1-(cyclopentylmethyl)piperidin-4-yl]phenyl}-1-(pyridin-3-yl)azetidine-3-carboxamide] had an IC50 of 66.3 nM.

With `COc1cccc(C(=O)N2CCC(c3ccc(NC(=O)[C@H]4CCN(c5cccnn5)C4)cc3)CC2)c1` [Example 720, (3S)-N-{4-[1-(3-methoxybenzoyl)piperidin-4-yl]phenyl}-1-(pyridazin-3-yl)pyrrolidine-3-carboxamide], the IC50 stood at 8.57 nM.

`CC(C)(C)C(=O)N1CCC(Oc2ccc(NC(=O)C3CN(c4cccnn4)C3)cc2)CC1` [Example 241, N-(4-{[1-(2,2-dimethylpropanoyl)piperidin-4-yl]oxy}phenyl)-1-(pyridazin-3-yl)azetidine-3-carboxamide]: the midpoint of inhibition, the IC50, lay at 7.73 nM.
